From patent US20240327471A1, “IL-10 INDUCING POLYPEPTIDES AND USES THEREOF” (ENTEROME S.A., priority 2021, published 2024)

Columns and labels:
human CD14+ monocytes = assay: NAT_29 dose response, IL-10 secretion from monocytes co-stimulated with LPS (AlphaLISA); type: cell-based; settings: LPS 100 ng/ml, 24 hours
Protocol: To investigate the IL-10 inducing/enhancing capacity of NAT_29, in vitro IL-10 secretion of human immune cells in the presence of different doses of NAT_29 was tested. Briefly, human CD14+ monocytes were isolated from peripheral blood mononuclear cells (PBMCs) from healthy human volunteers by density gradient centrifugation using SepMate™-50 IVD tubes (Stemcell, Ref. 85460). The obtained PBMCs were washed thrice with Dulbeccos's phosphate buffered saline (PBS, Sigma, D88537) and lysed 10 min at room temperature in Red blood Lysis buffer 1X (Miltenyi Biotec, 130-094-183). Cells were washed with MACS buffer (Miltenyi Biotec, 130-091-221) and counted using the trypan blue dye exclusion method. CD14+monocytes were sorted using anti-human CD14 Microbeads (Miltenyi Biotec, 130-050-201) as per manufacturer's protocol. Positive CD14+ fractions were collected and seeded at 2×10^4 cells per well in 384 well plates in IMDM medium (Gibco, 12440-046) supplemented with 10% FBS and 1X antibiotic solution.
[…] IL-10 secretion were measured at 24 hours by AlphaLISA® on cell supernatants according to the supplier's protocol and read on an Envision plate reader (Perkin Elmer).

TNBS-induced colitis = assay: Acute colitis induced by TNBS in rats (Wallace score, colon Lipocalin-2, mortality); type: in vivo, Sprague-Dawley rats; settings: intrarectal; for Wallace score: once a day, evaluated 4 days after TNBS
Source text: Next, anti-inflammatory properties of the NAT_29 polypeptide (SEQ ID NO: 1) have been evaluated in the 2,4,6-trinitrobenzene sulfonic acid (TNBS)-induced colitis model. The model of colitis induced by TNBS in rats is a validated animal model to evaluate the anti-inflammatory properties of drugs in intestinal bowel diseases (IBD). TNBS induces deep inflammation resulting in necrosis (with transmural destruction of the intestine wall) of the colon. This model is well-characterized, reliable, reproducible, and admitted by regulatory authorities in IBD (e.g., as described in Antoniou, E., et al. (2016). The TNBS-induced colitis animal model: An overview. Annals of medicine and surgery, vol. 11, 9-15, which is incorporated herein in its entirety).
To this end, the NAT_29 polypeptide (SEQ ID NO: 1) was administered by intrarectal instillation at two different concentrations (1 and 0.1 μM) in the model of acute colitis induced by TNBS (intrarectal administration at 80 mg/kg) in Sprague-Dawley rats. The anti-inflammatory effects were evaluated at the macroscopic level using validated score of Wallace and compared to those induced by the positive control (5-ASA) administered also by intrarectal instillation.
Resolution of inflammation was also evaluated using colon Lipocalin-2 (Lcn-2) quantification. Lipocalin-2, also known as neutrophil gelatinase-associated lipocalin (NGAL), is considered as a clinically relevant biomarker of IBD. […] In rodent models of colitis, a strong association has been shown between elevated levels of Lcn-2 and colitis severity.
Male Sprague-Dawley rats (Body weight: around 100-150 g) were allocated randomly and blindly 4 per cage and acclimated for one week. Rats were obtained from Janvier Laboratoires, Le Genest Saint-Isle, France.
The tested products were administered once a day by intrarectal instillation (500μl) in a prophylactic and therapeutic mode starting at day -5, i.e. 5 days before colitis induction (DO) and until euthanasia at D4, corresponding to 9 treatment days in total.
For colitis induction, Sprague Dawley rats were anesthetized for 2 hours using a subcutaneous injection of xylazine at 12.5 mg/kg/ketamin at 25 mg/kg. […] The TNBS solution at 80 mg/kg was prepared based on the mean body weight of rats, which is recorded before the TNBS solution preparation.
NAT_29 was solubilized in PBS and the active concentration for animal treatment was calculated assuming a maximum volume of colon-rectum content in rat of 3.5ml. […]
Animals were sacrificed 4 days (D4) after TNBS administration (DO) for evaluation of the intensity of colitis. Samples from distal colon were collected and used for macroscopic assessments and lipocalin quantification. […]

Sequence: KKGSRSCFFIYLDRGTKKGSRSCFFYLP (NAT_29) [28-amino-acid fragment of microbiota protein ID3166]
- IL-10 secretion from monocytes (human CD14+ monocytes; 0.1 to 1000 nM): highest IL-10 levels were measured in both cell types at the highest concentration of NAT_29 tested
- sensitivity of monocytes versus MoDCs to the action of NAT_29 (human CD14+ monocytes; IL-10 secretion): monocytes appeared to be more sensitive than MoDCs
- Wallace score (TNBS-induced colitis; final concentration of 0.1 μM): protective effect (albeit not significant)
- lipocalin-2 level in the colon (ELISA) (TNBS-induced colitis; final concentration of 0.1 μM, 4 days after TNBS): slight decrease of lipocalin-2 level (albeit not significant)
- Wallace score (TNBS-induced colitis; final concentration of 1 μM): statistically protective effect
- Lipocalin levels in the colon (ELISA) (TNBS-induced colitis; final concentration of 1UM, 4 days after TNBS): significant decrease of Lipocalin levels
